{"source": "patent US20240285547A1", "about": "“NEPHROTOXICITY REDUCING AGENT” (Nippon Shinyaku Co., Ltd., priority 2021, published 2024)", "key": {"[1]": {"system": "C57BL/6J male mice", "assay": "Evaluation of nephrotoxicity reducing effects of D-mannitol: serum BUN and Cre after tail vein administration of PMO dosing solutions", "details": "D-mannitol in PMO dosing solution vs control dosing solution comprising no D-mannitol", "description": "The antisense oligomers of PMO Nos. 1, 2, 6, 7, and 10 were each dissolved in water for injection comprising 0.9% sodium chloride (manufactured by Otsuka Pharmaceutical Co., Ltd.) to prepare a control dosing solution comprising each of the antisense oligomers at the concentrations shown in Tables 2, 3, 6, 7, and 8 and comprising no D-mannitol. Also, the antisense oligomers of PMO Nos. 3 and 4 were each dissolved in 5% glucose (manufactured by Otsuka Pharmaceutical Co., Ltd.) to prepare a control dosing solution comprising each of the antisense oligomers at the concentrations shown in Tables 4 and 5 and comprising no D-mannitol. […]\nThe obtained dosing solutions were administered into the tail vein of 6-week-old C57BL/6J male mice at 4, 10, and 20 mL/kg. Next day, serum was collected from the mice, and the blood urea nitrogen (BUN) values and blood creatinine (Cre) values were measured with the urease-GIDH method and the enzymatic method, respectively, using automatic biochemical analyzers JCA-BM6050 or JCA-BM8060 (manufactured by JEOL Ltd.)."}, "[2]": {"assay": "Evaluation of precipitation suppressing effects with D-mannitol (absorbance at 620 nm in presence of ions assumed to be in urine)", "format": "physicochemical", "details": "D-mannitol as medium for PMO Nos. 1, 2, 3, 5, 6, 7, ions assumed to be in urine, 37° C.", "method": "The amount of precipitation in the presence of ions assumed to be in urine and precipitation suppressing effects of D-mannitol were evaluated on the antisense oligomers of PMO Nos. 1, 2, 3, 5, 6, and 7 (SEQ ID NO: 1, 2, 3, 5, 6, and 7) among those listed in Table 1 to further verify their utility for pharmaceutical applications."}, "[3]": {"system": "C57BL/6J male mice", "assay": "Evaluation of nephrotoxicity reducing effects of D-sorbitol: serum BUN and Cre after tail vein administration of PMO dosing solutions", "details": "D-sorbitol in PMO dosing solution vs dosing solution comprising no D-sorbitol", "protocol": "Next, the antisense oligomer of PMO No. 2 was dissolved in a solution obtained by dissolving D-sorbitol (manufactured by Maruishi Pharmaceutical Co., Ltd.) with physiological saline to prepare a dosing solution comprising the antisense oligomer and D-sorbitol at the concentrations shown in Table 9. Also, the antisense oligomer of PMO No. 3 was dissolved in a solution obtained by dissolving D-sorbitol with water for injection to prepare a dosing solution comprising the antisense oligomer and D-sorbitol at the concentrations shown in Table 10.\nThe obtained dosing solutions were administered into the tail vein of 6-week-old C57BL/6J male mice (N=3) at 4 and 10 mL/kg. Next day, serum was collected from the mice, and the blood urea nitrogen (BUN) values and blood creatinine (Cre) values were measured with the urease-GIDH method and the enzymatic method, respectively, using automatic biochemical analyzers JCA-BM8060 (manufactured by JEOL Ltd.). It was determined that the nephrotoxicity was reduced in a case where both of the BUN values and Cre values decreased in the mice to which the dosing solution comprising D-sorbitol has been administered, compared to the mice to which the dosing solution comprising no D-sorbitol has been administered."}}, "data": [{"smiles": "OC[C@@H](O)[C@@H](O)[C@H](O)[C@H](O)CO", "note": "[D-mannitol]", "values": [{"measurement": "Nephrotoxicity reducing effect", "setting": "[1]", "result": "reduce nephrotoxicity"}, {"measurement": "Precipitation suppressing effect", "setting": "[2]", "result": "suppress the precipitation of antisense oligomers"}]}, {"smiles": "OC[C@@H](O)[C@@H](O)[C@H](O)[C@@H](O)CO", "note": "[D-sorbitol]", "values": [{"measurement": "Nephrotoxicity reducing effect", "setting": "[3]", "result": "reduce nephrotoxicity"}]}]}
